Source: the NIST ThermoML archive (doi:10.1016/j.jct.2005.08.007)
Values joined by “and” are separate entries in the source; they are usually repeats but may differ in a detail not shown here. Equal entries are not always repeated. ± gives the expanded uncertainty stated by the source.

Details: Crystal, Calculated from knudsen effusion weight loss

Compound	vapor or sublimation pressure (361.11 K)	vapor or sublimation pressure (363.08 K)	vapor or sublimation pressure (365.26 K)	vapor or sublimation pressure (367.09 K)	vapor or sublimation pressure (369.04 K)	vapor or sublimation pressure (371.26 K)	vapor or sublimation pressure (373.26 K)	vapor or sublimation pressure (375 K)	vapor or sublimation pressure (377.06 K)	vapor or sublimation pressure (305.14 K)	vapor or sublimation pressure (307.15 K)	vapor or sublimation pressure (309.16 K)	vapor or sublimation pressure (311.15 K)	vapor or sublimation pressure (313.15 K)	vapor or sublimation pressure (315.13 K)	vapor or sublimation pressure (317.13 K)	vapor or sublimation pressure (319.17 K)	vapor or sublimation pressure (321.14 K)
O=[N+]([O-])c1c2ccccc2cc2ccccc12 [9-nitroanthracene]	0.00019 ± 1e-05 kPa and 0.000196 ± 1e-05 kPa and 0.000195 ± 1e-05 kPa	0.000236 ± 1.2e-05 kPa and 0.000238 ± 1.2e-05 kPa	0.000291 ± 1.5e-05 kPa and 0.000294 ± 1.5e-05 kPa	0.000354 ± 1.8e-05 kPa and 0.000339 ± 1.7e-05 kPa and 0.000342 ± 1.7e-05 kPa	0.000431 ± 2.2e-05 kPa and 0.000439 ± 2.2e-05 kPa and 0.000427 ± 2.1e-05 kPa	0.000532 ± 2.7e-05 kPa and 0.000526 ± 2.6e-05 kPa and 0.000534 ± 2.7e-05 kPa	0.00064 ± 3.2e-05 kPa and 0.000643 ± 3.2e-05 kPa and 0.000647 ± 3.2e-05 kPa	0.000772 ± 3.9e-05 kPa and 0.000773 ± 3.9e-05 kPa and 0.000761 ± 3.8e-05 kPa	0.000928 ± 4.6e-05 kPa and 0.000924 ± 4.6e-05 kPa									
O=[N+]([O-])c1cccc2ccccc12 [1-nitronaphthalene]										0.0001735 ± 8.7e-06 kPa and 0.0001744 ± 8.7e-06 kPa and 0.0001738 ± 8.7e-06 kPa	0.0002252 ± 1.1e-05 kPa and 0.0002215 ± 1.1e-05 kPa and 0.000218 ± 1.1e-05 kPa	0.0002813 ± 1.4e-05 kPa and 0.0002824 ± 1.4e-05 kPa and 0.0002776 ± 1.4e-05 kPa	0.0003559 ± 1.8e-05 kPa and 0.0003531 ± 1.8e-05 kPa and 0.0003518 ± 1.8e-05 kPa	0.0004632 ± 2.3e-05 kPa and 0.0004566 ± 2.3e-05 kPa and 0.0004531 ± 2.3e-05 kPa	0.0005799 ± 2.9e-05 kPa and 0.0005723 ± 2.9e-05 kPa and 0.0005739 ± 2.9e-05 kPa	0.0006969 ± 3.5e-05 kPa and 0.0007016 ± 3.5e-05 kPa and 0.0006949 ± 3.5e-05 kPa	0.0008754 ± 4.4e-05 kPa and 0.0008956 ± 4.5e-05 kPa and 0.0008803 ± 4.4e-05 kPa	0.001127 ± 0.00012 kPa and 0.001114 ± 0.00011 kPa and 0.001108 ± 0.00011 kPa
